The values that follow come from patent US20150344466A1 (SUMITOMO CHEMICAL COMPANY, LIMITED, priority 2013, published 2015).

What all share (type): in vivo
The subject of assay [1] is Culex pipiens pallens. The assay can be described thus: Larvicidal test on Culex pipiens pallens, one day (Test Example 6). The note with it: 24 h; last-instar larvae of Culex pipiens pallens; 3.5 ppm in water; one day later; read-out: death rate. An outline of the steps:
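Twenty last-instar larvae were placed in 100 ml ion-exchanged water holding 0.7 ml of a 500 ppm aqueous dilution of the formulated compound, giving 3.5 ppm active ingredient. Survival was scored after one day and death rate expressed as dead/tested × 100.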

In assay [2] the test system is Culex pipiens pallens. The assay can be described thus: Larvicidal test on Culex pipiens pallens, eight days (Test Example 7). The note with it: 192 h; last-instar larvae of Culex pipiens pallens; 3.5 ppm in water; eight days later; read-out: death rate. An outline of the steps:
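Twenty last-instar larvae placed in 100 ml ion-exchanged water containing test drug at 3.5 ppm active ingredient. Mortality scored after eight days; death rate = dead/tested × 100.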

The test system of another assay is Plutella xylostella. Briefly: Foliar spray test on Plutella xylostella on cabbage (Test Example 10). The note with it: 120 h, third instar larvae of Plutella xylostella on cabbage, 500 ppm spray 20 ml/cup, after five days, read-out: controlling value. An outline of the steps:
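Cabbage at the third–fourth true-leaf stage sprayed with test solution at 20 ml/cup, dried, then infested with 10 third-instar larvae. Insects counted after five days; controlling value (%) calculated from treated and non-treated counts before treatment and at observation.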

Assay [3] relates to Adoxophyes orana fasciata. The assay can be described thus: Spray test on Adoxophyes orana fasciata on apple seedling (Test Example 12). Conditions: 168 h, first-instar larvae of Adoxophyes orana fasciata on apple seedling, 20 ml spray, seven days after spraying. Here is the method: On the other hand, 20 ml of the test spray solution was each sprayed on an apple seedling (28 days after sowing, a tree height of about 15 cm) planted in a plastic cup. After the drug solution sprayed on the apple was air-dried, about 30 first-instar larvae of Adoxophyes orana fasciata were released. Seven days after spraying, the number of surviving Adoxophyes orana fasciata on the apple seedling was investigated, and the controlling value was calculated according to the following equation. Controlling value (%)={1−(Cb×Tai)/(Cai×Tb)}×100 In the equation, the symbols represent as follows. Cb: the number of insects in a non-treated section before treatment Cai: the number of insects in a non-treated section on observation Tb: the number of insects in a treated section before treatment Tai: the number of insects in a treated section on observation

In assay [4] the test system is Blattella germanica. The assay can be described thus: Knockdown spray test on Blattella germanica, 2.0% w/v oil formulation (Test Example 1). The note with it: topical, 0.25 h, active ingredient 2.0% w/v, 1.5 ml sprayed, within 15 minutes, read-out: knockdown rate of the test insects within 15 minutes. An outline of the steps:
(§1)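 Ten German cockroaches (5 males, 5 females) in a mesh-bottomed, butter-walled container were sprayed with 1.5 ml test solution from 60 cm at 0.42 kg/cm^2 inside a chamber.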

Assay [5] concerns Musca domestica. Briefly: Knockdown spray test on adult Musca domestica (Test Example 3). Conditions: topical, 0.25 h, active ingredient 2.0% w/v, 0.5 ml sprayed, within 15 minutes, read-out: knockdown rate of the test insects within 15 minutes. An outline of the steps: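 Ten adult house flies (5 male, 5 female) in a gauze-covered cup sprayed with 0.5 ml test solution from 30 cm at 0.9 kg/cm^2 inside a chamber, then removed. Knocked-down flies counted at 2, 5 and 15 min and expressed as % of insects tested.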

Assay [6] has as its system Culex pipiens pallens. The assay can be described thus: Knockdown spray test on adult Culex pipiens pallens (Test Example 4). The note with it: topical, 0.25 h, active ingredient 0.1% w/v, 0.5 ml sprayed, within 15 minutes, read-out: knockdown rate of the test insects within 15 minutes. An outline of the steps:
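Ten adult mosquitoes in a gauze-covered cup inside a 46×46×70 cm chamber were sprayed with 0.5 ml of test solution from 30 cm at 0.4 kg/cm^2. The cup was removed at once, and knocked-down insects were counted at 2, 5 and 15 min; knockdown rate (%) = knocked-down/tested ×100.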

The test system of a further assay is Aphis gossypii. The assay can be described thus: Foliar spray test on Aphis gossypii on cucumber (Test Example 8). Conditions: 144 h, 500 ppm spray 20 ml/cup, Sir days after spraying, read-out: controlling value. Here is the method:
On the other hand, cucumber was planted in a polyethylene cup and grown until the first true leaf was spread, and about 20 Aphis gossypii were allowed to parasitize the cucumber. One day after, the test spray solution was sprayed to the cucumber at a ratio of 20 ml/cup. Sir days after spraying, the number of Aphis gossypii was investigated, and the controlling value was calculated according to the following equation. Controlling value (%)={1−(Cb×Tai)/(Cai×Tb)}×100 In the equation, the symbols represent as follows. Cb: the number of insects in a non-treated section before treatment Cai: the number of insects in a non-treated section on observation Tb: the number of insects in a treated section before treatment Tai: the number of insects in a treated section on observation

A further assay deals with Spodoptera litura. Briefly: Foliar spray test on Spodoptera litura on cabbage (Test Example 11). Conditions: 96 h, fourth instar larvae of Spodoptera litura on cabbage, 500 ppm spray 20 ml/cup, after 4 days, read-out: controlling value. An outline of the steps:
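Cabbage is grown in cups to the third–fourth true leaf and sprayed at 20 ml/cup. Once the spray has dried, 10 fourth-instar larvae are released per cup and survivors are counted after 4 days. Controlling value (%) is corrected using pre-treatment and observation counts in treated and untreated sections.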

The test system of assay [7] is Blattella germanica. Briefly: Knockdown spray test on Blattella germanica, 0.1% w/v oil formulation (Test Example 2). The note with it: topical, 0.25 h, active ingredient 0.1% w/v, 1.5 ml sprayed, within 15 minutes, read-out: knockdown rate of the test insects within 15 minutes. An outline of the steps: as §1
For assay [8], the system named is Musca domestica. Briefly: Filter paper/sucrose bait death rate test on Musca domestica (Test Example 5). The note with it: female imagoes of Musca domestica, 0.7 ml on filter paper, after 24 hours. An outline of the steps: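 Filter paper in a 5.5 cm cup dosed with 0.7 ml test drug solution, with 30 mg sucrose as bait. Ten female adult houseflies released and cup sealed. Dead insects counted after 24 h; death rate (%) = dead/tested × 100.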

Structures are written as SMILES.

Turning to `O=C(NCC1CCS(=O)(=O)C1)c1cc(COCc2ccccc2)on1` (stereo not shown) [(39), N-(1,1-dioxotetrahydrothiophen-3-ylmethyl)-5-benzyloxymethylisoxazole-3-carboxamide], the pest or weed control at 3.5 ppm in the assay with Culex pipiens pallens [1] and with Culex pipiens pallens [2] was no less than 90% throughout. Further, the pest or weed control at 500 ppm was no less than 90% in the assay with Plutella xylostella and 100% in assay [3].

With `O=C(NCC1CCOCC1)c1cc(COCc2cccc(C(F)(F)F)c2)on1` [(65)], the pest or weed control at 2 % strength in the assay on Blattella germanica [4] and in the assay with Musca domestica [5] was no less than 80% in each case. Further, the pest or weed control at 0.1 % strength with Culex pipiens pallens [6] is no less than 80%. In addition, the pest or weed control at 500 ppm with Aphis gossypii was no less than 90%; in the assay with Plutella xylostella, no less than 90%; in the assay on Spodoptera litura, no less than 80%; in assay [3] it was 100%.

On to `O=C(NCC1CCOCC1)c1cc(COCc2ccc(Cl)c(Cl)c2)on1` [(73), N-(tetrahydropyran-4-ylmethyl)-5-(3,4-dichlorobenzyloxymethyl)isoxazole-3-carboxamide], for which the pest or weed control at 0.1 % strength in the assay with Blattella germanica [7] and in the assay on Culex pipiens pallens [6] was no less than 80% in each case. Also, in the assay with Culex pipiens pallens [2], the pest or weed control at 3.5 ppm is no less than 90%. Besides, the pest or weed control at 500 ppm was no less than 90% with Aphis gossypii, no less than 90% in the assay on Plutella xylostella, no less than 80% with Spodoptera litura and 100% in [3].

Consider `O=C(NCC1CCOC1)c1cc(COCC2Oc3ccccc3O2)on1` (stereo not shown) [(122), N-(tetrahydrofuran-3-ylmethyl)-5-(1,3-benzodioxolan-2-ylmethoxymethyl)isoxazole-3-carboxamide], for which the pest or weed control at 0.1 % strength in the assay with Blattella germanica [7] and with Culex pipiens pallens [6] was no less than 80% each time. In addition, the pest or weed control at 500 ppm in assay [3] was determined as 100%.

On to `O=C(NCC1CCOC1)c1cc(CCCCCCCOc2ccc3ccccc3n2)on1` (stereo not shown) [(150), N-(tetrahydrofuran-3-ylmethyl)-5-[7-(2-quinolyloxy)heptyl]isoxazole-3-carboxamide], for which the pest or weed control at 2 % strength in the assay on Musca domestica [5] was no less than 80%. Also, the pest or weed control at 0.1 % strength in the assay with Culex pipiens pallens [6] is no less than 80%. The values for the pest or weed control at 500 ppm (in the assay on Musca domestica [8]; with Plutella xylostella; in assay [3]) were no less than 90%, no less than 90% and 100%, respectively. The pest or weed control at 3.5 ppm with Culex pipiens pallens [1] and in the assay with Culex pipiens pallens [2] was no less than 90% each time.

On to `O=C(NCC1CCOC1)c1noc(COCc2ccccc2)c1CF` (stereo not shown) [(170), N-(tetrahydrofuran-3-ylmethyl)-(5-benzyloxymethyl-4-fluoromethyl)isoxazole-3-carboxamide], for which the pest or weed control at 0.1 % strength in the assay on Blattella germanica [7] and in the assay with Culex pipiens pallens [6] was no less than 80% in each case. Further, the pest or weed control at 3.5 ppm in the assay on Culex pipiens pallens [1] and in the assay with Culex pipiens pallens [2] was no less than 90% each time. The pest or weed control at 500 ppm in the assay with Plutella xylostella was no less than 90%; in [3], 100%.

On to `O=C(NCC1CCOC1)c1noc(COCc2ccccc2)c1C(F)F` (stereo not shown) [(171), N-(tetrahydrofuran-3-ylmethyl)-(5-benzyloxymethyl-4-difluoromethyl)isoxazole-3-carboxamide], for which the pest or weed control at 0.1 % strength in the assay on Culex pipiens pallens [6] was no less than 80%. Besides, the pest or weed control at 3.5 ppm in the assay with Culex pipiens pallens [1] and in the assay with Culex pipiens pallens [2] was no less than 90% each time. The pest or weed control at 500 ppm was no less than 90% in the assay with Plutella xylostella, no less than 80% in the assay with Spodoptera litura and 100% in [3].

As for `O=C(NCC1CCOCC1)c1cc(COc2ccc(Cl)c(Cl)c2)on1` [(183)], the pest or weed control at 0.1 % strength in the assay on Culex pipiens pallens [6] was no less than 80%. Besides, the pest or weed control at 3.5 ppm in the assay with Culex pipiens pallens [1] and in the assay with Culex pipiens pallens [2] was no less than 90% each time. The results for the pest or weed control at 500 ppm (in the assay with Spodoptera litura; in assay [3]) were no less than 80% and 100%, respectively.

Turning to `O=C(NCC1CCOC1)c1cc(CCCc2ccc3c(c2)OCO3)on1` (stereo not shown) [(234), N-(tetrahydrofuran-3-ylmethyl)-5-[3-(1,3-benzodioxolan-5-yl)propyl]isoxazole-3-carboxamide], the pest or weed control at 0.1 % strength with Blattella germanica [7] and in the assay with Culex pipiens pallens [6] was no less than 80% throughout. For the same compound, the pest or weed control at 500 ppm was no less than 90% in the assay with Musca domestica [8], no less than 90% with Plutella xylostella, no less than 80% with Spodoptera litura and 100% in [3]. In addition, in the assay on Culex pipiens pallens [1], the pest or weed control at 3.5 ppm is no less than 90%.
